The source of these data is patent US10583103B2, “Method of treating heart failure with preserved ejection fraction with probenecid” (University Of Cincinnati, priority 2013, dated 2020).

Assay [1] has as its system thoracic aortae of wild type mice. The assay can be described thus: Vascular smooth muscle reactivity in isolated aorta (DMT myograph), wild type. The settings on record: for EC50: Mus musculus, phenylephrine pre-contracted, read-out: EC50 for the relaxing effect. Further details: species or system mouse.
In assay [2] the test system is thoracic aortae of TRPV2−/− mice. Briefly: Vascular smooth muscle reactivity in isolated aorta (DMT myograph), TRPV2 knockout. Further details: species or system mouse; developed tension: dose or concentration left out as unconfirmed. To be noted: for EC50: Mus musculus, phenylephrine pre-contracted, read-out: EC50 for the relaxing effect.
The subject of another assay is WT mice. The assay can be described thus: Invasive cardiac hemodynamics in intact anesthetized mice (LV pressure development), wild type. Format: in vivo, mouse. How it is done:
(§1) All animal procedures were performed with the approval of the Institutional Animal Care and Use Committee (IACUC) of the University of Cincinnati and in accordance with the Guide for the Care and Use of Laboratory Animals (NIH, revised 1996). All wild type (WT) mice (B6129SF2/J F2 and C57BL6J, Jackson laboratories) and TRPV2^−/− mice (breeding pairs provided by Dr. M. Caterina, John's Hopkins, Baltimore, Md.) were males at 12-16 weeks of age (REF). Prior to experiments, mice were maintained on normal rodent chow and water ad libitum, and on a 14 hr/10 hr light/dark cycle (6 AM to 8 PM).
Measurements of left ventricular performance and regional blood flow were performed in separate groups of WT and TRPV2^−/− mice as previously described {Lorenz, 2008#1}. Briefly, mice were anesthetized with an intraperitoneal injection of ketamine (50 μg/gBW) and inactin (thiobutabarbital, 100 μg/gBW, Sigma, MA). A tracheotomy was performed (PE-90), and body temperature was monitored and maintained with a feedback-controlled heating table. The right femoral artery was cannulated with fluid-filled polyethylene tubing for measurement of blood pressure and connected to a low compliance pressure transducer (COBE Cardiovascular, Arvada, Colo.). The right femoral vein was cannulated for delivery of drugs. A high fidelity, 1.2F Scisense pressure catheter (Scisense, London, ON, Canada) was inserted into the right carotid artery and advanced into the left ventricle to monitor cardiac performance. ECG leads were placed on the right and left arms, and left leg and connected to a BIOAmp (ADInstruments, Colorado Springs, Colo.). For carotid blood flow measurements, the left carotid artery was isolated and fitted with a 0.5-PSB perivascular flow probe connected to a TS420 flow meter (Transonic Systems, Ithaca, N.Y.). Pressure, flow, and ECG signals were recorded and analyzed using a PowerLab system (ADInstruments). Hemodynamic measurements were taken at the basal state and after the administration of 30 and 100 μg/g doses of probenecid i.v., with 5 minutes between each dose (100 μg/μl delivered as 0.3 and 1.0 μl/gBW bolus). Measurements were taken from the final 30-40 seconds of each dosage period. Maximum dP/dt (dP/dtmax) and dP/dt at 40 mmHg of developed pressure (dP/dt40) were calculated from the first derivative of the pressure waveforms. Cerebral vascular resistance (CVR) was calculated from recorded channels of mean arterial pressure and mean cerebral blood flow (CVR=MAP/CBF).
Statistical analysis was performed by analysis of variance (ANOVA) using either a single factor within-subjects design, or a two- or three-factor mixed design with repeated measures as appropriate. Individual contrasts were used to compare group effects and interactions when needed, and the Tukey post-hoc test was used to compare individual means where appropriate (SigmaStat v3.5, Point Richmond, Calif.). Data are presented as means±S.E.M., and differences were regarded as significant at P<0.05.

For a further assay, the system named is TRPV2−/− mice. Briefly: Invasive cardiac hemodynamics in intact anesthetized mice (LV pressure development), TRPV2 knockout. Format: in vivo, mouse. The settings on record: probenecid 30 and 100 μg/g i.v. bolus. How it is done:
as §1
Measurements of left ventricular performance and regional blood flow were performed in separate groups of WT and TRPV2^−/− mice as previously described {Lorenz, 2008#1}. […] A tracheotomy was performed (PE-90), and body temperature was monitored and maintained with a feedback-controlled heating table. […] Pressure, flow, and ECG signals were recorded and analyzed using a PowerLab system (ADInstruments). […] Maximum dP/dt (dP/dtmax) and dP/dt at 40 mmHg of developed pressure (dP/dt40) were calculated from the first derivative of the pressure waveforms. Cerebral vascular resistance (CVR) was calculated from recorded channels of mean arterial pressure and mean cerebral blood flow (CVR=MAP/CBF). […]

The subject of another assay is isolated aortae. Briefly: Vasoconstrictor effect of probenecid in isolated aortae (cumulative concentration-force relationship). Details: species or system mouse.
Another assay concerns the target T1, TRPV2 (Homo sapiens, UniProt Q9Y5S1).
T1 sequence (Q9Y5S1 1-764): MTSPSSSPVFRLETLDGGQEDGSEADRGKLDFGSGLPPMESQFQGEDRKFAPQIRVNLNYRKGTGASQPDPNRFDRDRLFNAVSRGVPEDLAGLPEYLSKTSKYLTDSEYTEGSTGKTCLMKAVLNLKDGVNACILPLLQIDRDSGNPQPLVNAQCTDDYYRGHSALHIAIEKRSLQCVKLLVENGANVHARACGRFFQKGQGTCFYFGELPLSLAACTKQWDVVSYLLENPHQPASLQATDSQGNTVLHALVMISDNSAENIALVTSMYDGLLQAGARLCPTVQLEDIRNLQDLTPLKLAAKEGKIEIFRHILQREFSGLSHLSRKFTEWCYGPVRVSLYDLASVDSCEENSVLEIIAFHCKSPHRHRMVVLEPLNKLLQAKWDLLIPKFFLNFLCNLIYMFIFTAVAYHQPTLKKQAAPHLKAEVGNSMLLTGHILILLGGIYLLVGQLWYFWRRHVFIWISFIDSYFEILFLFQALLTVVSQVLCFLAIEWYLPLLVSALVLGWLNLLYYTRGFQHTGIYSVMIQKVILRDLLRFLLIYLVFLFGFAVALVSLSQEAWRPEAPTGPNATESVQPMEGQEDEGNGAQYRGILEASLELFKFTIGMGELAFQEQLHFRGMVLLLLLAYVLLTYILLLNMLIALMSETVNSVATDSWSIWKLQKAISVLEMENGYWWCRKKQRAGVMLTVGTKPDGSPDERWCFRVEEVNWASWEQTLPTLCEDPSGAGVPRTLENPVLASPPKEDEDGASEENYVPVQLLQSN
The settings on record: cited from earlier work.

Assay [3] concerns isolated WT cardiomyocytes. To be noted: putatively through TRPV2 stimulation; cited from earlier work.
Where [4] appears, read: endothelium-denuded (−E), pre-contracted with 3 mM phenylephrine.

Read-outs that look alike come from different tables or passages of the source.

With `CNC[C@H](O)c1cccc(O)c1` [phenylephrine], the “maximal developed tension in response to phenylephrine” value in assay [1] (endothelium-denuded (−E), n=8) was found to be 5.99±0.74 mN; in assay [1] (intact endothelium (+E)) it was 1.45±0.12 mN; in assay [2] (endothelium-denuded (−E), n=8), 6.07±0.55 mN; in assay [2] (intact endothelium (+E)), 1.75±0.25 mN.
The EC50 is the concentration needed to bring the measured effect to its halfway point. For `CCCN(CCC)S(=O)(=O)c1ccc(C(=O)O)cc1` [probenecid], in the assay with WT mice (WT mice, low (30 mg/kg) and high (100 mg/kg) doses), the lusitropy result is “increased lusitropy”. The “contractile function (LV dP/dtmax, dP/dt40)” value with WT mice (WT mice, probenecid 30 and 100 μg/g i.v. bolus) is reported as “robust stimulation of contractile function”. Also, the “time to maximal effect on LV dP/dt” value in the assay with WT mice (after i.v. bolus administration) is given as “maximal within one minute”. Moreover, in the assay with WT mice (after i.v. bolus administration, at the time of reported measurement), the “duration of stable effect on LV dP/dt” value was “at least 5 minutes”. In the assay on WT mice (rodents, summary statement), the “cardiac relaxation and diastolic function” value was “improved cardiac relaxation and improved diastolic function”. Moreover, in the assay with TRPV2−/− mice, the “contractile function (LV dP/dtmax, dP/dt40), effect relative to WT” value is listed as “markedly attenuated”. Moreover, the EC50 in assay [1] (intact endothelium (+E)) was found to be 670 ± 210 µM; in assay [1] (without endothelium (−E)), 4560 ± 340 µM; in assay [2] (intact endothelium (+E)), 520 ± 110 µM; in assay [2] (without endothelium (−E)) it was 4590 ± 520 µM. Further, the “dilatory response, concentration threshold” value in assay [1] (setting [4]) and in assay [2] (setting [4]) was “no significant dilatory response until a concentration of 1 mM” throughout. Moreover, the “developed tension at 10 mM probenecid” value in assay [1] (endothelium-denuded (−E), pre-contracted with phenylephrine, 10 mM) was “about 25 % of maximum”. Moreover, the developed tension entry in assay [2] (endothelium-denuded (−E), pre-contracted with phenylephrine) was “about 25 % of maximum”. For the same molecule, in the assay with isolated aortae (low and high doses, even in deendothelialized vessels (discussion)), the vasoactive effect result is on record as “no significant vasoactive effect”. Further, the “vasoconstrictor effect (force production)” value in the assay with isolated aortae (with or without intact endothelium, concentrations as high as 10 mM) is given as “no evidence was found of increased force production”. Also, the TRPV2 agonist activity entry at TRPV2 is “selective agonist of TRPV2”. In assay [3], the “cytosolic Ca2+ concentrations and Ca2+ sparks” value was “increases cytosolic Ca^2+ concentrations and increased Ca^2+ sparks”.
